From PMC4187505 (Journal of the American Heart Association: Cardiovascular …, 2014)

What was measured:
[1] = biological target: hlipocalin-2 (human lipocalin-2, neutrophil gelatinase-associated lipocalin) (Homo sapiens, UniProt P80188); experiment: isothermal titration calorimetry; type: binding
nonreducing SDS-PAGE = biological target: the molecule itself; experiment: nonreducing SDS-PAGE

Sequence of hlipocalin-2 (human lipocalin-2, neutrophil gelatinase-associated lipocalin) (P80188 21-198): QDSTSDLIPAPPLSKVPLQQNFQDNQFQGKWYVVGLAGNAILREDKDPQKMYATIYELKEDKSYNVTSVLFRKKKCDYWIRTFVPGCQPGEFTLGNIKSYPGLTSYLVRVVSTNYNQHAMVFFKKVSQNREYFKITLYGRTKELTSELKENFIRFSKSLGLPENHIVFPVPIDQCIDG

## CCCCC/C=C\C/C=C\CCCCCCCC(=O)O [linoleic acid]
[1]
  Kd: 0.487 µM

## CCCCCCCC/C=C\CCCCCCCC(=O)O [oleic acid]
[1]
  Kd: 1470 µM

B1: human lipocalin‐2 mutant C87A (cysteine 87 replaced by alanine) (natural protein, UniProt P80188 21-198, looked up)
chain: QDSTSDLIPAPPLSKVPLQQNFQDNQFQGKWYVVGLAGNAILREDKDPQKMYATIYELKEDKSYNVTSVLFRKKKCDYWIRTFVPGAQPGEFTLGNIKSYPGLTSYLVRVVSTNYNQHAMVFFKKVSQNREYFKITLYGRTKELTSELKENFIRFSKSLGLPENHIVFPVPIDQCIDG
modifications: contains a significantly lesser amount of polyamines than wild type
Nonreducing SDS-PAGE
  ratio of homodimer/monomer: > 10 homodimer/monomer
